Source: patent US20230233569A1 (Revolution Medicines, Inc., priority 2020, published 2023)

Experiments:
Test in all cases: Disruption of BRAF RBD interaction with Ras (FRET / MOA assay, with Cyclophilin A)
Type in all cases: biochemical
KRAS G12C = KRAS G12C (Homo sapiens, UniProt P01116+P62937, G12C); conditions: KRAS G12C; read-out: KRAS G12C FRET data IC50
Source text: (§1) This protocol may also be executed substituting other Ras proteins or nucleotides.
(§2) The purpose of this biochemical assay was to measure the ability of test compounds to facilitate ternary complex formation between a nucleotide-loaded K-Ras isoform and Cyclophilin A; the resulting ternary complex disrupts binding to a BRAF^RBD construct, inhibiting K-Ras signaling through a RAF effector. Data is reported as IC50 values.
(§3) Compound was present in plate wells as a 10-point 3-fold dilution series starting at a final concentration of 30 μM. After incubation at 25° C. for 3 hours, a mixture of Anti-His Eu-W1024 and anti-GST allophycocyanin was then added to assay sample wells at final concentrations of 10 nM and 50 nM, respectively, and the reaction incubated for an additional 1.5 hours. […] Compounds that facilitate disruption of a K-Ras:RAF complex were identified as those eliciting a decrease in the TR-FRET ratio relative to DMSO control wells.
as §2, with “BRAF^RBDD” for “BRAF^RBD”

KRAS G12D = KRAS G12D (Homo sapiens, UniProt P01116+P62937, G12D); conditions: read-out: KRAS G12D FRET data, IC50
Source text: as §1, §2, §3
as §2, with “BRAF^RBDD” for “BRAF^RBD”

KRAS G12S = KRAS G12S (Homo sapiens, UniProt P01116+P62937, G12S); conditions: read-out: KRAS G12S FRET data, IC50
Source text: as §1, §2, §3
as §2, with “BRAF^RBDD” for “BRAF^RBD”

KRAS G12V = KRAS G12V (Homo sapiens, UniProt P01116+P62937, G12V); conditions: KRAS G12V; read-out: KRAS G12V FRET data IC50
Source text: as §1, §2, §3
as §2, with “BRAF^RBDD” for “BRAF^RBD”

KRAS G13C = KRAS G13C (Homo sapiens, UniProt P01116+P62937, G13C); conditions: KRAS G13C; read-out: KRAS G13C FRET data IC50
Source text: as §1, §2, §3
as §2, with “BRAF^RBDD” for “BRAF^RBD”

KRAS WT = KRAS WT (Homo sapiens, UniProt P01116+P62937); conditions: KRAS WT; read-out: KRAS WT FRET data IC50
Source text: as §1, §2, §3
as §2, with “BRAF^RBDD” for “BRAF^RBD”

NRAS G12C = NRAS G12C (Homo sapiens, UniProt P01111+P62937, G12C); conditions: NRAS G12C; read-out: NRAS G12C FRET data IC50
Source text: as §1, §2, §3
as §2, with “BRAF^RBDD” for “BRAF^RBD”

Sequence of KRAS G12V (P01116 1-169 isoform P01116-2 G12V limits assumed): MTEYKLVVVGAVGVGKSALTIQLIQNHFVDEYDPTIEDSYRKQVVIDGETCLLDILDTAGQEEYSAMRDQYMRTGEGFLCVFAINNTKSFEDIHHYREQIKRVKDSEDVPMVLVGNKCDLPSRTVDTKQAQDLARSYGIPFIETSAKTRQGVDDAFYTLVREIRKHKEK
Sequence of KRAS G12V (P62937 whole entry): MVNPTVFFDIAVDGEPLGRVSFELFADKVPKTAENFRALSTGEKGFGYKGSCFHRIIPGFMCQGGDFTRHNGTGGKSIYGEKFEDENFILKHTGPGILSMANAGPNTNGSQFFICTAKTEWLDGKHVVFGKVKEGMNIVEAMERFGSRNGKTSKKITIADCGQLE
Sequence of KRAS G12C (P01116 1-169 isoform P01116-2 G12C): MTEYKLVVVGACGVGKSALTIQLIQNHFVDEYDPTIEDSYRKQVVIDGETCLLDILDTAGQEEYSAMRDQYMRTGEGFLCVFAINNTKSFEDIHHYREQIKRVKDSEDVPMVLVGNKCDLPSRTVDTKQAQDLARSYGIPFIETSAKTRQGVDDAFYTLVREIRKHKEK
Sequence of KRAS G12C (P62937 whole entry): as the sequence (P62937 whole entry) above
Sequence of KRAS G13C (P01116 1-169 isoform P01116-2 G13C): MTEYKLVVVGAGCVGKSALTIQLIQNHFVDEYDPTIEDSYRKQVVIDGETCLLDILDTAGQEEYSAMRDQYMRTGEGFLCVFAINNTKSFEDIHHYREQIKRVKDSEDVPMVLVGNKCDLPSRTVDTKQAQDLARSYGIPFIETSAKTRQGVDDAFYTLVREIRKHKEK
Sequence of KRAS G13C (P62937 whole entry): as the sequence (P62937 whole entry) above
Sequence of KRAS G12S (P01116 1-169 isoform P01116-2 G12S limits assumed): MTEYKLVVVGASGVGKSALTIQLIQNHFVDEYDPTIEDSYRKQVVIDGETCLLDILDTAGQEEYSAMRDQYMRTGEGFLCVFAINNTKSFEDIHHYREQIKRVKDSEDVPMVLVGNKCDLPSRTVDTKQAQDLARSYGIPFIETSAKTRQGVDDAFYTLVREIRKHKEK
Sequence of KRAS G12S (P62937 whole entry): as the sequence (P62937 whole entry) above
Sequence of KRAS G12D (P01116 1-169 isoform P01116-2 G12D limits assumed): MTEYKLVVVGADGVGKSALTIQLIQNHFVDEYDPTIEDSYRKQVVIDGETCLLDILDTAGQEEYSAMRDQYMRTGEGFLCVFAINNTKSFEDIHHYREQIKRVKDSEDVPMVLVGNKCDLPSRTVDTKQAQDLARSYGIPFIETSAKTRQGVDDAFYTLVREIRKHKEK
Sequence of KRAS G12D (P62937 whole entry): as the sequence (P62937 whole entry) above
Sequence of KRAS WT (P01116 1-169 isoform P01116-2 limits assumed): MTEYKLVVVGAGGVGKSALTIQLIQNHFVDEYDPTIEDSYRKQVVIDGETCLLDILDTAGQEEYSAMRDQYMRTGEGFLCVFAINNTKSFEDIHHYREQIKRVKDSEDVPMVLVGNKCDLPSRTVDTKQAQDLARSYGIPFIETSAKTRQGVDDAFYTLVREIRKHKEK
Sequence of KRAS WT (P62937 whole entry): as the sequence (P62937 whole entry) above
Sequence of NRAS G12C (P01111 whole entry G12C): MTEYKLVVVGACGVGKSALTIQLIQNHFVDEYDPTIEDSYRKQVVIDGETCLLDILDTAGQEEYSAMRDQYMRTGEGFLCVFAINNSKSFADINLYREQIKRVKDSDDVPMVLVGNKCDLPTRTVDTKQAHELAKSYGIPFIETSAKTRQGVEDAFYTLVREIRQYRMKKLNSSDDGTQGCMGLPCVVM
Sequence of NRAS G12C (P62937 whole entry): as the sequence (P62937 whole entry) above

IC50 (KRAS G12C) [nM]	IC50 (KRAS G12D) [nM]	IC50 (KRAS G12S) [nM]	IC50 (KRAS G12V) [nM]	IC50 (KRAS G13C) [nM]	IC50 (KRAS WT) [nM]	IC50 (NRAS G12C) [nM]	Compound
10 to 100	1000 to 10000	100 to 1000	100 to 1000	100 to 1000	1000 to 10000		C=CC(=O)N1CC[C@H](C(=O)N(C)[C@H](C(=O)N[C@H]2Cc3cc(O)cc(c3)-c3ccc4c(c3)c(c(-c3cccnc3COC)n4CC)CC(C)(C)COC(=O)[C@@H]3CCCN(N3)C2=O)C2CCCC2)C1 [Example A055]
10 to 100	1000 to 10000	100 to 1000	100 to 1000	1000 to 10000	1000 to 10000		C=CC(=O)N1CC[C@H](C(=O)N(C)[C@H](C(=O)N[C@H]2Cc3cc(O)cc(c3)-c3ccc4c(c3)c(c(C3=C(COC)COCC3)n4CC)CC(C)(C)COC(=O)[C@@H]3CCCN(N3)C2=O)C(C)C)C1 [Example A058]
10 to 100	1000 to 10000	100 to 1000	100 to 1000	100 to 1000	100 to 1000		CCn1c(-c2cccnc2COC)c2c3cc(ccc31)-c1cc(O)cc(c1)C[C@H](NC(=O)[C@H](C(C)C)N(C)C(=O)[C@H]1CCN(C(=O)/C=C/CN3CCN(C)CC3)C1)C(=O)N1CCC[C@H](N1)C(=O)OCC(C)(C)C2 [Example A072]
100 to 1000	> 10000	1000 to 10000	1000 to 10000	1000 to 10000	1000 to 10000		C=CC(=O)N1CC[C@H](C(=O)N(C)[C@H](C(=O)N[C@H]2Cc3cc(O)cc(c3)-c3ccc4c(c3)c(c(-c3cncc(CN(C)C)c3)n4CC)CC(C)(C)COC(=O)[C@@H]3CCCN(N3)C2=O)C(C)C)C1 [Example A073]
100 to 1000	> 10000	1000 to 10000	1000 to 10000	1000 to 10000	1000 to 10000		C=CC(=O)N1CC[C@H](C(=O)N(C)[C@H](C(=O)N[C@H]2Cc3cc(O)cc(c3)-c3ccc4c(c3)c(c(-c3cncc(CCN(C)C)c3)n4CC)CC(C)(C)COC(=O)[C@@H]3CCCN(N3)C2=O)C(C)C)C1 [Example A081]
10 to 100	1000 to 10000	100 to 1000	100 to 1000	100 to 1000	100 to 1000		C=CC(=O)N1CC[C@H](C(=O)N(C)[C@H](C(=O)N[C@H]2Cc3cc(O)cc(c3)-c3ccc4c(c3)c(c(-c3ccncc3COC)n4CC)CC(C)(C)COC(=O)[C@@H]3CCCN(N3)C2=O)C(C)C)C1 [Example A091]
100 to 1000	> 10000	1000 to 10000	1000 to 10000	1000 to 10000	1000 to 10000		C=CC(=O)N1CC[C@H](C(=O)N(C)[C@H](C(=O)N[C@H]2Cc3cc(O)cc(c3)-c3ccc4c(c3)c(c(-c3cccnc3CN(C)C)n4CC)CC(C)(C)COC(=O)[C@@H]3CCCN(N3)C2=O)C(C)C)C1 [Example A092]
< 10	> 10000					< 10	CCn1c(-c2cccnc2COC)c2c3cc(ccc31)-c1cc(O)cc(c1)C[C@H](NC(=O)[C@H](C(C)C)N(C)C(=O)[C@H]1CCN(C(=O)C#CCN3CCOCC3)C1)C(=O)N1CCC[C@H](N1)C(=O)OCC(C)(C)C2 [Example A095]
< 10	1000 to 10000	100 to 1000	100 to 1000	< 10	100 to 1000		CCn1c(-c2cccnc2COC)c2c3cc(ccc31)-c1cc(O)cc(c1)C[C@H](NC(=O)[C@H](C(C)C)N(C)C(=O)C1CN(C(=O)C#CCN(C)C)C1)C(=O)N1CCC[C@H](N1)C(=O)OCC(C)(C)C2 [Example A097]
100 to 1000	> 10000	1000 to 10000	1000 to 10000	1000 to 10000	> 10000		C=CC(=O)N1CC[C@H](C(=O)N(C)[C@H](C(=O)N[C@H]2Cc3cc(O)cc(c3)-c3ccc4c(c3)c(c(-c3cnn(C)c3)n4CC)CC(C)(C)COC(=O)[C@@H]3CCCN(N3)C2=O)C(C)C)C1 [Example A099]
100 to 1000	> 10000	1000 to 10000	1000 to 10000	1000 to 10000	> 10000		C=CC(=O)N1CC[C@H](C(=O)N(C)[C@H](C(=O)N[C@H]2Cc3cc(O)cc(c3)-c3ccc4c(c3)c(c(-c3ccc(CN5CC[C@@H](O)C5)cc3)n4CC)CC(C)(C)COC(=O)[C@@H]3CCCN(N3)C2=O)C(C)C)C1 [Examples A001]
